In data set [1] the test system is TC71 Luc cells. The experiment in a line: TC71Luc Ewing's sarcoma xenograft murine model. The class given is in vivo, mice. The following applies: continuous and prolonged API administration. An excerpt: FIG. 3 (Smooth of Grouped-TC71 Luc Xenograft Animal Model) depicts data obtained from a TC71 Luc Ewing's sarcoma xenograft murine model for mice treated with the API in an EtOH (5%), PEG400 (40%), PBS formulation. The x-axis is time post-administration of the API in days with 0 being the first day of administration of API. The y-axis is tumor volume in mm^3.
Using a TC71Luc Ewing's sarcoma xenograft murine model, mice were subcutaneously injected with 1 million TC71 Luc cells. At a predetermined tumor volume (time=0), mice were given the first administration of API in an EtOH (5%), PEG400 (40%), PBS formulation. FIG. 3 depicts data obtained from control and for administration once per week (1×), three times per week (3×) and five times per week (5×) in each case at a dosage of 1.2 mg per mouse.

Details of data set [2]: species or system CF1 mice. The following applies: in vivo; for HL_Lambda_z: CF1, mouse. The source says: FIGS. 1A and 1B depict data of pharmacokinetic studies in CF1 mice with respect to administration of the API in the formulation shown in the Figures and via the route of administration shown in the Figures. […] In FIG. 1A group/dose=Group IV_IV_40; Rsq=0.9297; Rsq_adjusted=0.9062; HL_Lambda_z=4.7397 (hr); (5 points used in calculation); Uniform Weighting. […] In FIG. 1B group/dose=Group V_PO_40; Rsq=0.693; Rsq_adjusted=0.6163; HL_Lambda_z=2.0556 (hr); (6 points used in calculation); Uniform Weighting.
FIGS. 2A and 2B depict data of pharmacokinetic studies in CF1 mice with respect to administration of the API in the formulation shown in the Figures and via the route of administration shown in the Figures. […] In FIG. 2A dose/route=Group III_PO_150; Rsq=0.9685; Rsq_adjusted=0.9528; HL_Lambda_z=4.2505 (hr); (4 points used in calculation); Uniform Weighting. […] In FIG. 2B dose/route=Group VI_PO_400; Rsq=0.9971; Rsq_adjusted=0.9957; HL_Lambda_z=1.9461 (hr); (4 points used in calculation); Uniform Weighting.
Pharmacokinetics and bioavailability data was obtained from animal studies for a 50% PEG 400 plus 10% EtOH plus PBS formulation (Groups 1, 2 & 3) and a 40% PEG 400 plus 5% EtOH plus 18% TPGS plus PBS formulation (Groups 4, 5 & 6) and are shown below in Table 2.
The API was administered to CF1 mice. Blood was drawn from the mice at predetermined time intervals. Plasma was isolated from the blood and analyzed using LCMS to determine amounts of API (ng/mL). The data shown in FIG. 1A was obtained for IV administration of 40 mg/kg of API in a formulation containing 40% PEG400, 5% EtOH and 18% TPGS (d-alpha tocopheryl PEG1000 succinate). The data shown in FIG. 1B was obtained for PO administration of 40 mg/kg of API in a formulation containing 40% PEG400, 5% EtOH and 18% TPGS (d-alpha tocopheryl PEG1000 succinate). The data shown in FIG. 2A was obtained for PO administration of 150 mg/kg of API in a formulation containing 50% PEG400 and 10% EtOH. The data shown in FIG. 2B was obtained for PO administration of 400 mg/kg of API in a formulation containing 40% PEG400, 5% EtOH and 18% TPGS (d-alpha tocopheryl PEG1000 succinate). Time 0 in FIGS. 1A, 1B, 2A and 2B represent the time of administration of the API.

For data set [3] the following is noted: unformulated compound, background statement; cited from earlier work.

The values below come from patent US20170165231A1, “TREATING EWING'S SARCOMA AND EWS-FLI1 RELATED DISORDERS” (STAR BIOTECHNOLOGY, LLC, priority 2012, published 2017).

Read-outs that look alike come from different tables or passages of the source.

In the case of `COc1ccc(C(=O)CC2(O)C(=O)Nc3c(Cl)ccc(Cl)c32)cc1` (stereo not shown) [compound of Formula I, 4,7-Dichloro-1,3-dihydro-3-hydroxy-3[2-(4-methoxyphenyl)-2-oxoethyl]-2H-indol-2-one], the tumor abatement entry in data set [1] was “increased tumor abatement”. Also, the HL_Lambda_z came to 4.7397 h in data set [2] (iv, 40 mg/kg); 2.0556 h in data set [2] (po, 40 mg/kg); 4.2505 h in data set [2] (po, 150 mg/kg); 1.9461 h in data set [2] (po, 400 mg/kg). In addition, the “clearance rate from plasma” value in data set [2] (mouse) was “rapid”. In addition, the solubility in water entry in data set [3] is given as “highly insoluble”.
